Measurements published in patent US7767713B2, “Linoleic acid active agents for enhancing probability of becoming pregnant” (Palo Alto Investors, priority 2004, dated 2010).

Experiments:
[1] = system: female patients unable to achieve a successful pregnancy; assay: Open-label oral treatment of infertility clinic patients; format: in vivo, human; settings: oral form, 100 mg-5 g/day for three months, patients unable to achieve pregnancy for at least six months
Experimental: Several patients from an active infertility clinic population are selected for open-label treatment with linoleic acid. All female patients have been unable to achieve a successful pregnancy for at least six months. Linoleic acid is formulated into a pharmaceutical oral form at a dosage of 100 mg-5 g/day for three months.

[2] = system: uterine lining Th1/Th2 balance; assay: Animal model, immune function of the uterine lining; format: in vivo; settings: intravaginal injection, intrauterine injection or soaked vaginal sponge; versus sterile saline control animals
Experimental: An animal model is used to determine the effects of linoleic acid on immune function of the uterine lining. Linoleic acid is delivered via several different methods—direct injection of the linoleic acid formulation into the vagina, direct injection of linoleic acid formulation into the uterus, linoleic acid soaked into a sponge and placed into the vagina. Control animals have sterile saline instilled in place of linoleic acid. The animals are then sacrificed, and the uterine lining is analyzed for changes in immunologic activity.

SMILES: CCCCC/C=C\C/C=C\CCCCCCCC(=O)O [linoleic acid, Linoleic acid]
- Successful pregnancies [1]: Successful pregnancies are seen in at least one patient
- Changes in Th1/Th2 balance of uterine lining [2]: Changes in Th1/Th2 balance are seen
